Experimental data as given in ChEMBL document CHEMBL1159089, “Synthesis, antimalarial and antitubercular activity of acetylenic chalcones” (Bioorg Med Chem Lett, 2010).
Values after ≈ are worked out from the molar mass of the structure shown.

How the values were obtained:
Falcipain 2 = biological target: T1, Falcipain 2 (Plasmodium falciparum, UniProt Q9N6S8); test: Inhibition of Plasmodium falciparum falcipain-2
T1 sequence (Q9N6S8 whole entry): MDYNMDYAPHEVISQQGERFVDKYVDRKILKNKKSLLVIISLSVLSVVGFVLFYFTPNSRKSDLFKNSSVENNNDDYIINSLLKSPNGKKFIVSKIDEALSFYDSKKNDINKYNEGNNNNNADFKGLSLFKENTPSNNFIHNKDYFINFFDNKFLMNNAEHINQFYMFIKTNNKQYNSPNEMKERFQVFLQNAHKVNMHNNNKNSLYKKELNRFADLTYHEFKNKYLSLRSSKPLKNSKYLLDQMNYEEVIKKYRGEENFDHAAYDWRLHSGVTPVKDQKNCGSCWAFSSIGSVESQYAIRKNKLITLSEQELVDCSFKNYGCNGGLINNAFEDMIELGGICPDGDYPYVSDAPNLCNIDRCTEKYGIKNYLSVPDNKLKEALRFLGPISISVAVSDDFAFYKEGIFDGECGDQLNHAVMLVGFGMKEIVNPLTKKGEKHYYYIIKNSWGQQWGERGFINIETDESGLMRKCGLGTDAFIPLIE

Plasmodium falciparum [1] = test: Antimicrobial activity against chloroquine-resistant Plasmodium falciparum W2; type: functional, organism-based
Plasmodium falciparum [2] = test: Antimicrobial activity against chloroquine-sensitive Plasmodium falciparum D10; type: functional, organism-based
[3] = system: Mycobacterium tuberculosis; test: Antitubercular activity against Mycobacterium tuberculosis H37Rv by microplate Alamar blue assay; type: functional
[4] = system: Mycobacterium tuberculosis; test: Antitubercular activity against Mycobacterium tuberculosis H37Rv by low-oxygen-recovery assay; type: functional

| SMILES | IC50 (Falcipain 2) [µM] | IC50 (Plasmodium falciparum [1]) [µM] | IC50 (Plasmodium falciparum [2]) [µM] | MIC [3] [µM] | MIC [4] [µM] |
| --- | --- | --- | --- | --- | --- |
| C#CCOc1cccc(C(=O)/C=C/c2ccc(OC)cc2)c1 | > 100 | > 20 | > 100 | 51.2 (≈ 15 µg/mL) | > 128 |
| C#CCOc1ccc(/C=C/C(=O)c2ccc(OC)cc2OC)cc1 | > 100 | > 20 | 54.8 | > 128 | – |
| C#CCOc1ccc(/C=C/C(=O)c2ccc(OC)cc2OC)cc1OC | – | 3.8 | 3.4 | > 128 | – |
| C#CCOc1ccc(/C=C/C(=O)c2ccc(OC)c(OC)c2OC)cc1 | > 100 | > 20 | 13.3 | > 128 | – |
| C#CCOc1ccc(C(=O)/C=C/c2ccc(OC)cc2)cc1 | > 100 | > 20 | 16.5 | > 128 | – |
| C#CCOc1ccc(/C=C/C(=O)c2ccc(OC)cc2)cc1 | > 100 | > 20 | > 100 | > 128 | – |
| C#CCOc1ccc(/C=C/C(=O)c2ccc(OC)c(OC)c2OC)cc1OC | – | 7 | 7.7 | 109 (≈ 41.7 µg/mL) | – |
| C#CCOc1ccc(C(=O)/C=C/c2ccc(OC)cc2OC)cc1 | > 100 | > 20 | > 100 | 31 (≈ 9.99 µg/mL) | 108 (≈ 34.8 µg/mL) |
| C#CCOc1ccc(/C=C/C(=O)c2ccc(OC)cc2)cc1OC | – | 8.4 | 9.7 | > 128 | – |
| CC(C)C[C@H](NC(=O)[C@H]1O[C@@H]1C(=O)O)C(=O)NCCCCN=C(N)N [E-64] | 0.047 | – | – | – | – |
| C#CCOc1ccccc1C(=O)/C=C/c1ccc(OC)cc1 | > 100 | > 20 | > 100 | 31.1 (≈ 9.09 µg/mL) | 56.7 (≈ 16.6 µg/mL) |
| C#CCOc1ccc(C(=O)/C=C/c2ccc(OC)c(OC)c2OC)cc1 | > 100 | > 20 | 4.43 | > 128 | – |
| C#CCOc1ccccc1C(=O)/C=C/c1ccc(OC)c(OC)c1OC | > 100 | > 20 | > 100 | 98.7 (≈ 34.8 µg/mL) | 46.1 (≈ 16.2 µg/mL) |
| C#CCOc1ccc(C(=O)/C=C/c2ccc(OC)c(OC)c2OC)cc1OC | – | 6.7 | 4.1 | > 128 | – |
| C#CCOc1ccc(C(=O)/C=C/c2ccc(OC)cc2OC)cc1OC | – | 9.7 | 20 | > 128 | – |
| C#CCOc1ccccc1/C=C/C(=O)c1ccc(OC)cc1 | > 100 | > 20 | > 100 | 47.5 (≈ 13.9 µg/mL) | 50.7 (≈ 14.8 µg/mL) |
| COc1c(N2C[C@@H]3CCCN[C@@H]3C2)c(F)cc2c(=O)c(C(=O)O)cn(C3CC3)c12 [MOXIFLOXACIN] | – | – | – | 0.29 (≈ 0.116 µg/mL) | 31.1 (≈ 12.5 µg/mL) |
| C#CCOc1cccc(C(=O)/C=C/c2ccc(OC)c(OC)c2OC)c1 | > 100 | > 20 | 33 | 58.7 (≈ 20.7 µg/mL) | 29.7 (≈ 10.5 µg/mL) |
| C#CCOc1ccccc1/C=C/C(=O)c1ccc(OC)cc1OC | > 100 | > 20 | 8 | 59.1 (≈ 19.1 µg/mL) | 14.9 (≈ 4.8 µg/mL) |
| C#CCOc1cccc(/C=C/C(=O)c2ccc(OC)cc2)c1 | > 100 | > 20 | 11.6 | 40 (≈ 11.7 µg/mL) | 31.7 (≈ 9.27 µg/mL) |
| C#CCOc1ccccc1C(=O)/C=C/c1ccc(OC)cc1OC | > 100 | > 20 | 18.9 | 53.7 (≈ 17.3 µg/mL) | 62.8 (≈ 20.2 µg/mL) |
| O=[N+]([O-])c1cn2c(n1)OC[C@@H](OCc1ccc(OC(F)(F)F)cc1)C2 [PRETOMANID] | – | – | – | 0.16 (≈ 0.0575 µg/mL) | 3.3 (≈ 1.19 µg/mL) |
| C#CCOc1cccc(C(=O)/C=C/c2ccc(OC)cc2OC)c1 | > 100 | > 20 | > 100 | > 128 | – |
| C#CCOc1ccccc1/C=C/C(=O)c1ccc(OC)c(OC)c1OC | > 100 | > 20 | 50.6 | 61.9 (≈ 21.8 µg/mL) | 28.6 (≈ 10.1 µg/mL) |
| CO[C@H]1/C=C/O[C@@]2(C)Oc3c(C)c(O)c4c(O)c(c(/C=N/N5CCN(C)CC5)c(O)c4c3C2=O)NC(=O)/C(C)=C\C=C\[C@H](C)[C@H](O)[C@@H](C)[C@@H](O)[C@@H](C)[C@H](OC(C)=O)[C@@H]1C [RIFAMPIN] | – | – | – | 0.05 (≈ 0.0411 µg/mL) | 2.4 (≈ 1.98 µg/mL) |
| NNC(=O)c1ccncc1 [ISONIAZID] | – | – | – | 0.37 (≈ 0.0507 µg/mL) | > 128 |
| C#CCOc1cccc(/C=C/C(=O)c2ccc(OC)cc2OC)c1 | > 100 | > 20 | 7.57 | 54.9 (≈ 17.7 µg/mL) | 26.1 (≈ 8.41 µg/mL) |
| C#CCOc1cccc(/C=C/C(=O)c2ccc(OC)c(OC)c2OC)c1 | > 19 | > 20 | > 100 | 54 (≈ 19 µg/mL) | 13.1 (≈ 4.62 µg/mL) |
